Experiments:
[1] = tested on: A. baumannii biofilm; test: microbe, parasite or virus in culture; assay type: cell-based; details: Acinetobacter baumannii; 10 μg/mL, positive control; read-out: biofilm formation inhibition
Experimental: In order to investigate an effect of octopromycin on the biofilm of A. baumannii, analysis for biofilm formation inhibition and eradication was performed.
To examine the inhibitory effect of an octopromycin peptide on biofilm formation, A. baumannii was cultured in TSB. The bacteria were diluted to 5×10^5 CFU/mL in a TSB medium, then 97.5 mL and 90 mL of bacterial suspensions were mixed with 2.5 mL and 10 mL of peptides, respectively, to reach 50 μg/mL (MIC) and 200 μg/mL (MBC), and cultured on a 96-well plate for 24 hours. Then, the supernatant was carefully removed, and the formed biofilm was fixed with 100% methanol for 10 minutes. After methanol was removed, the biofilm was stained with 0.1% crystal violet for 30 minutes. Subsequently, the plate was washed 3 times with distilled water. Finally, the biofilm was completely dissolved in 95% ethanol and absorbance was measured at 495 nm using a microplate reader (Bio-Rad, USA).

[2] = tested on: A. baumannii; test: Propidium iodide (PI) uptake / FDA staining membrane permeability assay (CLSM); assay type: cell-based, Acinetobacter baumannii; details: 10 μg/mL, positive control
Experimental: Propidium iodide (PI) uptake assay was performed to evaluate an effect of octopromycin on association with the membrane permeability and apoptosis of A. baumannii. The PI was a red fluorescent nuclear and chromosome counter dye that indicated changes in cell membrane permeability, and was used to detect the presence of dead cells and simultaneously observe live cells by observing green fluorescence (FDA). A. baumannii treated with octopromycin at MIC; 50 μg/mL and MBC; 200 μg/mL levels and control cell suspensions were centrifuged (5000 rpm for 2 minutes), washed with PBS and the pellets were suspended in PBS. Subsequently, the cells were cultured with 20 μg/mL of PI (Sigma Aldrich, USA) and 8 μg/mL of FDA (Sigma Aldrich, USA) at 25° C. for 30 minutes in the dark, and finally, the remaining dye was washed with PBS. Finally, a 5 μL drop of each suspension was placed on a cover slip and fluorescence images were observed using a CLSM integrated with a scan head on an Axiovert 200M inverted microscope (Carl Zeiss, Germany).

[3] = tested on: A. baumannii; test: Time-kill kinetics (OD 595 nm); assay type: cell-based, Acinetobacter baumannii; details: 10 μg/mL
Experimental: The MIC and MBC levels of octopromycin in A. baumannii were determined using media dilution tests and subcultures, respectively, according to the guidelines of the Clinical and Laboratory Standards Institute (CLSI, 2008 M27-A3). Several concentrations of octopromycin (0, 5, 10, 25, 50, 100, and 200 μg/mL) were tested as standard antibiotics (positive control) together with chloramphenicol (10 μg/mL, Sigma-Aldrich, USA) acting on A. baumannii growth and the MBC of chloramphenicol was confirmed according to the same procedure. The MIC was determined as the minimum concentration required to inhibit visual growth of A. baumannii. […] For analysis of time-kill kinetics, A. baumannii was cultured with octopromycin at various concentrations (0, 25, 50, 100, and 200 μg/mL) in the TSA medium at 25° C., and at different time intervals (0, 3, 6, 9, 12, 18, and 21 h), the absorbance was measured at 595 nm using a microplate reader (Bio-Rad, Saint Louis, USA) to confirm an inhibitory effect after culturing.

[4] = tested on: mouse red blood cells; assay type: cell-based
Experimental: Systemic application of octopromycin as an antibiotic requires low toxicity to red blood cells. Accordingly, an in vitro hemolysis assay was performed using mouse red blood cells […].
The hemolytic activity of the peptide was evaluated using mouse red blood cells (RBC). The RBCs were washed 3 times with phosphate buffered saline (PBS) until the supernatant was clear. Different concentrations of octopromycin (0, 25, 50, 100, 200, 300 μg/mL) were added to 1.5 ml Eppendorf tubes. The RBCs were added at a final concentration of 8% (v/v) in a total volume of 500 μL. The RBCs were incubated for 1 hour, and then centrifuged for 10 minutes and the absorbance of the supernatant was measured at 414 nm.
Percent hemolysis was calculated using Equation:
Hemolysis (%)=(A414 of Peptide−A414 of PBS)/(A414 of Triton−A414 of PBS)×100

| Compound | inhibition at 10 µg/mL [1] [%] | membrane permeability (PI/FDA staining) [2] | growth inhibition (time-kill kinetics) [3] | hemolysis [4] [%] |
| --- | --- | --- | --- | --- |
| O=C(N[C@H](CO)[C@H](O)c1ccc([N+](=O)[O-])cc1)C(Cl)Cl [chloramphenicol, reference compound] | 85.9 | high membrane permeability | growth inhibition was similar to that of 50 μg/mL of octopromycin | – |
| Triton X-100 | – | – | – | 100 |

Reference: patent US20230321187A1, “OCTOPUS-DERIVED PEPTIDE OCTOPROMYCIN HAVING ANTIBACTERIAL AND ANTI-BIOFILM ACTIVITY AGAINST ACINETOBACTER BAUMANNII” (priority 2020, published 2023)
